Source: patent US20160263087A1, “NOVEL 4-(INDOL-3-YL)-PYRAZOLE DERIVATIVES, PHARMACEUTICAL COMPOSITIONS AND METHODS FOR USE” (ITEOS THERAPEUTICS, priority 2013, published 2016)
pIC50: −log10 of the molar value.

Tests used:
[1] = target: T1, human TDO2 (Homo sapiens, UniProt P48775); assay: Assay for TDO2 enzymatic activity determination; format: biochemical; set-up: made in house; conditions: human recombinant TDO2, L-Trp 1 mM, room temperature, one hour, kynurenine absorbance at 480 nm
Experimental: To measure the TDO2 activity, the reaction mixture contained (final concentrations) potassium phosphate buffer (50 mM, pH 7.5), ascorbic acid (0.25 M), methylene blue (0.125 μM), catalase (40 units/mL, from bovine liver, Sigma), and human recombinant TDO2 enzyme (prepared as described in Dolusic et al. J. Med. Chem.; 2011, 54, 5320-5334; 0.9 μg) without or with the compounds of the present invention at the indicated concentrations (total volume 112.5 μL). The reaction was initiated by the addition of 37.5 μL of L-Trp (final concentration 1 mM) at room temperature. The reaction was conducted at room temperature during one hour and stopped by the addition of 30 μL of 30% (w/v) trichloroacetic acid.
To convert N-formylkynurenine into kynurenine, the reaction mixture was incubated at 65° C. for 30 min. Then 150 μL of the reaction mixture was mixed with 120 μL of 2.5% (w/v) 4-(dimethylamino)-benzaldehyde in acetic acid and incubated for 5 min at room temperature. Kynurenine concentrations were determined by measuring the absorbance at 480 nm. A standard curve was made with pure kynurenine. The TDO activity was measured as described above using ten serial concentrations of the compounds of the present invention. Data were fitted using the Prism software (GraphPad Software, Inc.).

[2] = target: T1, human TDO2; assay: Cellular assay for TDO2 activity, hTDO2-overexpressing P815 cells; format: cell-based; set-up: expressed in transfected cells; host or cells: murine mastocytoma P815 cells; conditions: murine mastocytoma P815 cells overexpressing hTDO2, overnight incubation, kynurenine absorbance at 480 nm
Experimental: The assay was performed in 96-well flat bottom plates seeded with murine mastocytoma P815 cells overexpressing hTDO2 (prepared as described in Pilotte et al., PNAS, 2012, 109(7), 2497-2502), at a concentration of 5×10^4 cells/well in a final volume of 200 μL. To determine TDO or IDO activity, the cells were incubated overnight at 37° C. at 5% CO2 in IMDM (Invitrogen) supplemented with 2% FBS and 2% penicillin/streptomycin in the presence of the compounds of the present invention, at different concentrations.
The plates were then centrifuged 5 min at 1000 rpm, and 100 μL of the supernatant were collected in a conical plate, 30 uL of TCA 30% were added and a further centrifugated at 3000×g for 10 minutes. 100 μL of the supernatant were collected in a flat bottomed plate and 100 μL of 2% (w/v) 4-(dimethylamino)-benzaldehyde in acetic acid and incubated for 5 min at room temperature. Kynurenine concentrations were determined by measuring the absorbance at 480 nm. A standard curve was made with pure kynurenine. The TDO activity was measured as described above using ten serial concentrations of the compounds of the present invention. Data were fitted using the Prism software (GraphPad Software, Inc.).

T1 sequence (P48775 whole entry): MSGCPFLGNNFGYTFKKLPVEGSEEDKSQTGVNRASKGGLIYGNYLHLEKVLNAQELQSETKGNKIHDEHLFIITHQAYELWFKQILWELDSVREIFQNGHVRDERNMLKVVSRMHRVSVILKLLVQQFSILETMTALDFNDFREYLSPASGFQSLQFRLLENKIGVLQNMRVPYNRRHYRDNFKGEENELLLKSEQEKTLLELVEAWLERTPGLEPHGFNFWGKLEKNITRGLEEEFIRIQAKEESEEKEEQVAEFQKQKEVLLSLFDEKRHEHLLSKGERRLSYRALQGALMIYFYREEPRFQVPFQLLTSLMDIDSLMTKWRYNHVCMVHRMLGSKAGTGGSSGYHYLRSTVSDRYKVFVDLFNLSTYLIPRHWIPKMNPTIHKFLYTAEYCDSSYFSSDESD

| SMILES | melting point [°C] | pIC50 [1] | further results |
| --- | --- | --- | --- |
| CC(Cn1cc(-c2c[nH]c3cc(F)ccc23)cn1)C(N)=O (single isomer, unassigned) [Compound 35, 3-(4-(6-fluoro-1H-indol-3-yl)-1H-pyrazol-1-yl)-2-methylpropanamide] | 184.5 to 185.5 | – | – |
| NC(=O)CCn1cc(-c2c[nH]c3cc(F)ccc23)cn1 [Compound 7, 3-(4-(6-fluoro-1H-indol-3-yl)-1H-pyrazol-1-yl)propanamide] | 173.3 to 175 | – | – |
| NC(=O)CCn1cc(-c2c[nH]c3cc(F)c(F)cc23)cn1 [Compound 8, 3-(4-(5,6-difluoro-1H-indol-3-yl)-1H-pyrazol-1-yl)propanamide] | – | 5.00 to 6.00 | – |
| Cc1nn(CCC(N)=O)c(C)c1-c1c[nH]c2cc(F)ccc12 [Compound 9, 3-(4-(6-fluoro-1H-indol-3-yl)-3,5-dimethyl-1H-pyrazol-1-yl)propanamide] | – | 5.00 to 6.00 | – |
| CC(=O)NCCn1cc(-c2c[nH]c3cc(F)ccc23)cn1 [Compound 21, N-(2-(4-(6-fluoro-1H-indol-3-yl)-1H-pyrazol-1-yl)ethyl)acetamide] | 179.5 to 180.8 | – | – |
| CNCCn1cc(-c2c[nH]c3cc(F)ccc23)cn1 [Compound 24, 2-(4-(6-fluoro-1H-indol-3-yl)-1H-pyrazol-1-yl)-N-methylethanamine] | 94.2 to 95.2 | – | – |
| CS(=O)(=O)CCn1cc(-c2c[nH]c3cc(F)ccc23)cn1 [Compound 31, 6-fluoro-3-(1-(2-(methylsulfonyl)ethyl)-1H-pyrazol-4-yl)-1H-indole] | 153.3 to 155.1 | – | – |
| CS(=O)(=O)CCn1cc(-c2c[nH]c3cc(F)c(F)cc23)cn1 [Compound 32, 5,6-difluoro-3-(1-(2-(methylsulfonyl)ethyl)-1H-pyrazol-4-yl)-1H-indole] | 170.6 to 171.9 | – | – |
| Cc1nn(CCS(C)(=O)=O)c(C)c1-c1c[nH]c2cc(F)ccc12 [Compound 33, 3-(3,5-dimethyl-1-(2-(methylsulfonyl)ethyl)-1H-pyrazol-4-yl)-6-fluoro-1H-indole] | – | 4.00 to 5.00 | – |
| NC(=O)C(O)Cn1cc(-c2c[nH]c3cc(F)ccc23)cn1 (centres unmarked) [Compound 37, 3-(4-(6-fluoro-1H-indol-3-yl)-1H-pyrazol-1-yl)-2-hydroxypropanamide] | – | 5.00 to 6.00 | pIC50 [2]: > 6.00 |
| Fc1cc2[nH]cc(-c3cnn(CC4CCNCC4)c3)c2cc1F [Compound 44, 5,6-difluoro-3-(1-(piperidin-4-ylmethyl)-1H-pyrazol-4-yl)-1H-indole] | 167.1 to 168.9 | – | – |
| Cc1nn(CC2CCNCC2)c(C)c1-c1c[nH]c2cc(F)ccc12 [Compound 55, 3-(3,5-dimethyl-1-(piperidin-4-ylmethyl)-1H-pyrazol-4-yl)-6-fluoro-1H-indole] | – | 4.00 to 5.00 | – |
| Cc1nn(CC2CCNCC2)cc1-c1c[nH]c2cc(F)ccc12 [Compound 56, 6-fluoro-3-(3-methyl-1-(piperidin-4-ylmethyl)-1H-pyrazol-4-yl)-1H-indole] | – | > 6.00 | – |
| Cc1c(-c2c[nH]c3cc(F)ccc23)cnn1CC1CCNCC1 [Compound 57, 6-fluoro-3-(5-methyl-1-(piperidin-4-ylmethyl)-1H-pyrazol-4-yl)-1H-indole] | – | 5.00 to 6.00 | – |
| Fc1ccc2c(-c3cnn(CC4CCOCC4)c3)c[nH]c2c1 [Compound 58, 6-fluoro-3-(1-((tetrahydro-2H-pyran-4-yl)methyl)-1H-pyrazol-4-yl)-1H-indole] | 138.9 to 139.6 | – | – |
| O=S1(=O)CCC(Cn2cc(-c3c[nH]c4cc(F)ccc34)cn2)CC1 [Compound 60, 4-((4-(6-fluoro-1H-indol-3-yl)-1H-pyrazol-1-yl)methyl)tetrahydro-2H-thiopyran 1,1-dioxide] | 193.1 to 194.1 | – | – |
| NC(=O)[C@H]1CC[C@H](n2cc(-c3c[nH]c4cc(F)ccc34)cn2)CC1 [Compound 67, (1R,4R)-4-(4-(6-fluoro-1H-indol-3-yl)-1H-pyrazol-1-yl)cyclohexanecarboxamide] | – | – | pIC50 [2]: 5.00 to 6.00 |
| CC(=O)N1CCC(n2cc(-c3c[nH]c4cc(F)ccc34)c(C)n2)CC1 [Compound 94, 1-(4-(4-(6-fluoro-1H-indol-3-yl)-3-methyl-1H-pyrazol-1-yl)piperidin-1-yl)ethanone] | – | 4.00 to 5.00 | – |
| CC(=O)N1CCC(n2ncc(-c3c[nH]c4cc(F)ccc34)c2C)CC1 [Compound 95, 1-(4-(4-(6-fluoro-1H-indol-3-yl)-5-methyl-1H-pyrazol-1-yl)piperidin-1-yl)ethanone] | – | 5.00 to 6.00 | – |

The next lines start with results.

| melting point [°C] | pIC50 [1] | SMILES | further results |
| --- | --- | --- | --- |
| 240.1 to 241.8 | – | Fc1ccc2c(-c3cnn(C4CCNCC4)c3)c[nH]c2c1 [Compound 78, 6-fluoro-3-(1-(piperidin-4-yl)-1H-pyrazol-4-yl)-1H-indole] | – |
| 226 to 228 | – | O=C(O)CCC(=O)N1CCC(n2cc(-c3c[nH]c4cc(F)ccc34)cn2)CC1 [Compound 80, 4-(4-(4-(6-fluoro-1H-indol-3-yl)-1H-pyrazol-1-yl)piperidin-1-yl)-4-oxobutanoic acid] | – |
| 193.7 to 196.1 | – | CN(C)CC(=O)N1CCC(n2cc(-c3c[nH]c4cc(F)ccc34)cn2)CC1 [Compound 83, 2-(dimethylamino)-1-(4-(4-(6-fluoro-1H-indol-3-yl)-1H-pyrazol-1-yl)piperidin-1-yl)ethanone] | – |
| 99.9 to 102.1 | – | O=C(CO)N1CCC(n2cc(-c3c[nH]c4cc(F)ccc34)cn2)CC1 [Compound 84, 1-(4-(4-(6-fluoro-1H-indol-3-yl)-1H-pyrazol-1-yl)piperidin-1-yl)-2-hydroxyethanone] | – |
| 210.2 to 211 | – | CC(C)C(=O)N1CCC(n2cc(-c3c[nH]c4cc(F)ccc34)cn2)CC1 [Compound 86, 1-(4-(4-(6-fluoro-1H-indol-3-yl)-1H-pyrazol-1-yl)piperidin-1-yl)-2-methylpropan-1-one] | – |
| 231 to 232 | – | CC(C)(C)C(=O)N1CCC(n2cc(-c3c[nH]c4cc(F)ccc34)cn2)CC1 [Compound 87, 1-(4-(4-(6-fluoro-1H-indol-3-yl)-1H-pyrazol-1-yl)piperidin-1-yl)-2,2-dimethylpropan-1-one] | – |
| 190.7 to 191.4 | – | O=C(C1CC1)N1CCC(n2cc(-c3c[nH]c4cc(F)ccc34)cn2)CC1 [Compound 88, cyclopropyl(4-(4-(6-fluoro-1H-indol-3-yl)-1H-pyrazol-1-yl)piperidin-1-yl)methanone] | – |
| 223 to 224.6 | – | CN(C)C(=O)N1CCC(n2cc(-c3c[nH]c4cc(F)ccc34)cn2)CC1 [Compound 90, 4-(4-(6-fluoro-1H-indol-3-yl)-1H-pyrazol-1-yl)-N,N-dimethylpiperidine-1-carboxamide] | – |
| 222.8 to 223.7 | – | CN1CCC(n2cc(-c3c[nH]c4cc(F)ccc34)cn2)CC1 [Compound 91, 6-fluoro-3-(1-(1-methylpiperidin-4-yl)-1H-pyrazol-4-yl)-1H-indole] | – |
| – | 5.00 to 6.00 | O=S(=O)(N1CCC(n2cc(-c3c[nH]c4cc(F)ccc34)cn2)CC1)C(F)(F)F [Compound 92, 6-fluoro-3-(1-(1-((trifluoromethyl)sulfonyl)piperidin-4-yl)-1H-pyrazol-4-yl)-1H-indole] | – |
| – | 5.00 to 6.00 | COCCS(=O)(=O)N1CCC(n2cc(-c3c[nH]c4cc(F)ccc34)cn2)CC1 [Compound 96, 6-fluoro-3-(1-(1-((2-methoxyethyl)sulfonyl)piperidin-4-yl)-1H-pyrazol-4-yl)-1H-indole] | – |
| – | 5.00 to 6.00 | O=S(=O)(C1CC1)N1CCC(n2cc(-c3c[nH]c4cc(F)ccc34)cn2)CC1 [Compound 97, 3-(1-(1-(cyclopropylsulfonyl)piperidin-4-yl)-1H-pyrazol-4-yl)-6-fluoro-1H-indole] | – |
| – | 5.00 to 6.00 | CCS(=O)(=O)N1CCC(n2cc(-c3c[nH]c4cc(F)ccc34)cn2)CC1 [Compound 98, 3-(1-(1-(ethylsulfonyl)piperidin-4-yl)-1H-pyrazol-4-yl)-6-fluoro-1H-indole] | – |
| – | 5.00 to 6.00 | CC(C)S(=O)(=O)N1CCC(n2cc(-c3c[nH]c4cc(F)ccc34)cn2)CC1 [Compound 99, 6-fluoro-3-(1-(1-(isopropylsulfonyl)piperidin-4-yl)-1H-pyrazol-4-yl)-1H-indole] | – |
| – | 5.00 to 6.00 | C=CC(=O)N1CCC(n2cc(-c3c[nH]c4cc(F)ccc34)cn2)CC1 [Compound 102, 1-(4-(4-(6-fluoro-1H-indol-3-yl)-1H-pyrazol-1-yl)piperidin-1-yl)prop-2-en-1-one] | – |
